In the assay the test system is L1210 leukemia ip in BDF1 mice, survival T/C. In words: NCI In Vivo Anticancer Drug Screen. Data for tumor model L1210 Leukemia (intraperitoneal) in B6D2F1 (BDF1) mice. Particulars: higher = longer survival. The procedure, abridged: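 Tumor cells were implanted, animals were treated, and survival was followed. The result divides the treated measurement by the vehicle-control measurement.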

Setting [1] is: endpoint: mean survival time, dose: 100.0 mg/kg/injection, schedule: Q01DX009 (ip), vehicle: Klucel (hydroxypropylcellulose) (HPC).
Where [2] appears, read: endpoint: mean survival time, dose: 200.0 mg/kg/injection, schedule: Q01DX009 (ip), vehicle: Klucel (hydroxypropylcellulose) (HPC).

This note sets out measurements from PubChem BioAssay AID248 (DTP/NCI, 2004).

Structures are written as SMILES. Values joined by “and” are separate entries in the source; they are usually repeats but may differ in a detail not shown here. Equal entries are not always repeated. Toxic doses and inconclusive results are not listed.

As to `COc1ccc(S(=O)(=O)NC(=O)NCCC=C(C)C)cc1`, the T/C was 100 % of control (endpoint: mean survival time, dose: 50.0 mg/kg/injection, schedule: Q01DX009 (ip), vehicle: Klucel (hydroxypropylcellulose) (HPC)); 95 % of control under setting [1]; 106 % of control (endpoint: mean survival time, dose: 100.0 mg/kg/injection, schedule: Q04DX003 (ip), vehicle: Klucel (hydroxypropylcellulose) (HPC)); 91 % of control under setting [2]; 97 % of control (endpoint: mean survival time, dose: 200.0 mg/kg/injection, schedule: Q04DX003 (ip), vehicle: Klucel (hydroxypropylcellulose) (HPC)); 101 % of control (endpoint: mean survival time, dose: 400.0 mg/kg/injection, schedule: Q04DX003 (ip), vehicle: Klucel (hydroxypropylcellulose) (HPC)).
For the molecule `[N-]=[N+]=Nc1ccc2c(=O)c3ccccc3[nH]c2c1`, the T/C runs as follows: (endpoint: mean survival time, dose: 100.0 mg/kg/injection, schedule: Q04DX003 (ip), vehicle: acetone) 89 % of control; (endpoint: mean survival time, dose: 200.0 mg/kg/injection, schedule: Q04DX003 (ip), vehicle: acetone) 98 % of control; (endpoint: mean survival time, dose: 400.0 mg/kg/injection, schedule: Q04DX003 (ip), vehicle: acetone) 96 % of control.
`CC(=O)NCSCC(N)C(=O)O` (centres undefined): the T/C by setting is: (endpoint: mean survival time, dose: 100.0 mg/kg/injection, schedule: Q01DX009 (ip), vehicle: saline) 100 % of control; (endpoint: mean survival time, dose: 100.0 mg/kg/injection, schedule: Q04DX003 (ip), vehicle: saline) 108 % of control; (endpoint: mean survival time, dose: 200.0 mg/kg/injection, schedule: Q01DX009 (ip), vehicle: saline) 95 % of control; (endpoint: mean survival time, dose: 200.0 mg/kg/injection, schedule: Q04DX003 (ip), vehicle: saline) 92 % of control; (endpoint: mean survival time, dose: 400.0 mg/kg/injection, schedule: Q01DX009 (ip), vehicle: saline) 92 % of control; (endpoint: mean survival time, dose: 400.0 mg/kg/injection, schedule: Q04DX003 (ip), vehicle: saline) 94 % of control.
Regarding `COc1cccc2c1C(=O)c1c(O)c3c(c(O)c1C2=O)C[C@@](O)(/C(C)=N/NC(=O)c1ccccc1)C[C@@H]3OC1CC(N)C(O)C(C)O1` (some centres undefined), the T/C was 110 % of control (endpoint: mean survival time, dose: 0.25 mg/kg/injection, schedule: Q04DX003 (ip), vehicle: water); 111 % of control (endpoint: mean survival time, dose: 0.5 mg/kg/injection, schedule: Q04DX003 (ip), vehicle: water); 117 % of control (endpoint: mean survival time, dose: 1.0 mg/kg/injection, schedule: Q04DX003 (ip), vehicle: water); 124 % of control (endpoint: mean survival time, dose: 4.0 mg/kg/injection, schedule: Q04DX003 (ip), vehicle: water); 151 % of control (endpoint: mean survival time, dose: 8.0 mg/kg/injection, schedule: Q04DX003 (ip), vehicle: water); 179 % of control and 205 % of control (endpoint: mean survival time, dose: 16.0 mg/kg/injection, schedule: Q04DX003 (ip), vehicle: water). The T/C reads like this: (endpoint: mean survival time, dose: 24.0 mg/kg/injection, schedule: Q04DX003 (ip), vehicle: water) 120 % of control; (endpoint: median survival time, dose: 0.25 mg/kg/injection, schedule: Q01DX009 (ip), vehicle: water) 94 % of control; (endpoint: median survival time, dose: 0.25 mg/kg/injection, schedule: Q03HX024 (ip), vehicle: water) 105 % of control; (endpoint: median survival time, dose: 0.5 mg/kg/injection, schedule: Q01DX009 (ip), vehicle: water) 110 % of control; (endpoint: median survival time, dose: 0.5 mg/kg/injection, schedule: Q03HX024 (ip), vehicle: water) 110 % of control; (endpoint: median survival time, dose: 0.78 mg/kg/injection, schedule: Q03HX008 (ip), vehicle: water) 122 % of control. For the same molecule, the T/C by setting is: (endpoint: median survival time, dose: 0.78 mg/kg/injection, schedule: Q03HX024 (ip), vehicle: water) 111 % of control; (endpoint: median survival time, dose: 1.0 mg/kg/injection, schedule: Q01DX009 (ip), vehicle: water) 115 % of control; (endpoint: median survival time, dose: 1.0 mg/kg/injection, schedule: Q03HX008 (ip), vehicle: water) 115 % of control; (endpoint: median survival time, dose: 1.17 mg/kg/injection, schedule: Q03HX024 (ip), vehicle: water) 100 % of control; (endpoint: median survival time, dose: 1.2 mg/kg/injection, schedule: Q01DX009 (ip), vehicle: water) 105 % of control; (endpoint: median survival time, dose: 1.2 mg/kg/injection, schedule: Q03HX008 (ip), vehicle: water) 105 % of control. The T/C by setting is: (endpoint: median survival time, dose: 1.25 mg/kg/injection, schedule: Q04DX003 (ip), vehicle: water) 105 % of control; (endpoint: median survival time, dose: 1.75 mg/kg/injection, schedule: Q01DX009 (ip), vehicle: water) 94 % of control; (endpoint: median survival time, dose: 1.75 mg/kg/injection, schedule: Q03HX024 (ip), vehicle: water) 111 % of control; (endpoint: median survival time, dose: 2.0 mg/kg/injection, schedule: Q01DX009 (ip), vehicle: water) 110 % of control; (endpoint: median survival time, dose: 2.5 mg/kg/injection, schedule: Q01DX001 (ip), vehicle: water) 115 % of control; (endpoint: median survival time, dose: 2.5 mg/kg/injection, schedule: Q04DX003 (ip), vehicle: water) 121 % of control. Further, the T/C runs as follows: (endpoint: median survival time, dose: 2.6 mg/kg/injection, schedule: Q01DX009 (ip), vehicle: water) 122 % of control; (endpoint: median survival time, dose: 2.6 mg/kg/injection, schedule: Q03HX008 (ip), vehicle: water) 105 % of control; (endpoint: median survival time, dose: 2.6 mg/kg/injection, schedule: Q03HX024 (ip), vehicle: water) 94 % of control; (endpoint: median survival time, dose: 2.6 mg/kg/injection, schedule: Q04DX003 (ip), vehicle: water) 111 % of control; (endpoint: median survival time, dose: 3.9 mg/kg/injection, schedule: Q01DX001 (ip), vehicle: water) 111 % of control; (endpoint: median survival time, dose: 3.9 mg/kg/injection, schedule: Q01DX009 (ip), vehicle: water) 122 % of control. In addition, the T/C is, setting by setting: (endpoint: median survival time, dose: 3.9 mg/kg/injection, schedule: Q03HX008 (ip), vehicle: water) 100 % of control; (endpoint: median survival time, dose: 3.9 mg/kg/injection, schedule: Q03HX024 (ip), vehicle: water) 88 % of control; (endpoint: median survival time, dose: 3.9 mg/kg/injection, schedule: Q04DX003 (ip), vehicle: water) 111 % of control; (endpoint: median survival time, dose: 4.0 mg/kg/injection, schedule: Q03HX008 (ip), vehicle: water) 152 % of control; (endpoint: median survival time, dose: 5.0 mg/kg/injection, schedule: Q01DX001 (ip), vehicle: water) 115 % of control; (endpoint: median survival time, dose: 5.0 mg/kg/injection, schedule: Q04DX003 (ip), vehicle: water) 105 % of control. Moreover, the T/C is 100 % of control (endpoint: median survival time, dose: 5.9 mg/kg/injection, schedule: Q01DX001 (ip), vehicle: water); 100 % of control (endpoint: median survival time, dose: 5.9 mg/kg/injection, schedule: Q04DX003 (ip), vehicle: water); 122 % of control (endpoint: median survival time, dose: 8.9 mg/kg/injection, schedule: Q01DX001 (ip), vehicle: water); 94 % of control (endpoint: median survival time, dose: 8.9 mg/kg/injection, schedule: Q01DX009 (ip), vehicle: water); 111 % of control (endpoint: median survival time, dose: 8.9 mg/kg/injection, schedule: Q04DX003 (ip), vehicle: water); 115 % of control (endpoint: median survival time, dose: 10.0 mg/kg/injection, schedule: Q01DX001 (ip), vehicle: water). In addition, the T/C runs as follows: (endpoint: median survival time, dose: 10.0 mg/kg/injection, schedule: Q04DX003 (ip), vehicle: water) 163 % of control; (endpoint: median survival time, dose: 13.3 mg/kg/injection, schedule: Q01DX001 (ip), vehicle: water) 111 % of control; (endpoint: median survival time, dose: 13.3 mg/kg/injection, schedule: Q04DX003 (ip), vehicle: water) 105 % of control; (endpoint: median survival time, dose: 20.0 mg/kg/injection, schedule: Q01DX001 (ip), vehicle: water) 157 % of control; (endpoint: median survival time, dose: 20.0 mg/kg/injection, schedule: Q04DX003 (ip), vehicle: water) 100 % of control; (endpoint: median survival time, dose: 20.0 mg/kg/injection, schedule: Q08DX002 (ip), vehicle: water) 89 % of control.
For `Cc1ccc(NC(=O)OC/C=C/c2ccccc2)c(Cl)c1`, the T/C was 99 % of control under setting [1] and 97 % of control under setting [2].
Consider `c1cc2c3c(cccc3c1)-c1nc3ccccc3nc1-2`, for which the T/C is, setting by setting: (endpoint: mean survival time, dose: 50.0 mg/kg/injection, schedule: Q01DX Z (ip), vehicle: methylcellulose (MC)) 100 % of control; (endpoint: mean survival time, dose: 100.0 mg/kg/injection, schedule: Q01DX001 (ip), vehicle: carboxymethylcellulose (CMC)) 94 % of control; (endpoint: mean survival time, dose: 100.0 mg/kg/injection, schedule: Q01DX Z (ip), vehicle: methylcellulose (MC)) 98 % of control; (endpoint: mean survival time, dose: 125.0 mg/kg/injection, schedule: Q01DX Z (ip), vehicle: methylcellulose (MC)) 102 % of control; (endpoint: mean survival time, dose: 200.0 mg/kg/injection, schedule: Q01DX001 (ip), vehicle: carboxymethylcellulose (CMC)) 100 % of control; (endpoint: mean survival time, dose: 400.0 mg/kg/injection, schedule: Q01DX001 (ip), vehicle: carboxymethylcellulose (CMC)) 88 % of control.
For the molecule `OC/C(I)=C(I)\C(I)=C(\I)CO`, the T/C runs as follows: (endpoint: mean survival time, dose: 25.0 mg/kg/injection, schedule: Q04DX002 (ip), vehicle: Klucel (hydroxypropylcellulose) (HPC)) 90 % of control; (endpoint: mean survival time, dose: 50.0 mg/kg/injection, schedule: Q04DX002 (ip), vehicle: Klucel (hydroxypropylcellulose) (HPC)) 90 % of control; (endpoint: mean survival time, dose: 100.0 mg/kg/injection, schedule: Q04DX002 (ip), vehicle: Klucel (hydroxypropylcellulose) (HPC)) 94 % of control and 101 % of control.
